Data reported in PubChem BioAssay (NCI).
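Assay format: 96-well plates, 48-hour exposure. Definition used: TGI = concentration required for complete inhibition of growth.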

Experiments:
Experiment in all cases: growth of human tumour cells (NCI), 48 h
CAKI-1 renal = system: CAKI-1 renal
COLO 205 colon = system: COLO 205 colon
MCF7 breast = system: MCF7 breast
MDA-MB-435 = system: MDA-MB-435
OVCAR-8 ovarian = system: OVCAR-8 ovarian
SK-OV-3 ovarian = system: SK-OV-3 ovarian
SW-620 colon = system: SW-620 colon
T-47D breast = system: T-47D breast
U251 CNS = system: U251 CNS
IGROV1 ovarian = system: IGROV1 ovarian

Cc1ccc2nc(-c3ccc(N4C(=O)C(Cl)C4c4ccc(Cl)cc4)cc3)sc2c1 (configuration not stated)
TGI (CAKI-1 renal): 35.6 µM | TGI (COLO 205 colon): 27.8 µM | TGI (MCF7 breast): 32.7 µM | TGI (MDA-MB-435): 36.6 µM | TGI (OVCAR-8 ovarian): 81.1 µM | TGI (SK-OV-3 ovarian): 28 µM | TGI (SW-620 colon): 48 µM | TGI (T-47D breast): > 100 µM | TGI (U251 CNS): 42.4 µM

CCOC(=O)CC(=O)Nc1cccc2[nH]cnc12
TGI (CAKI-1 renal): > 100 µM | TGI (COLO 205 colon): > 100 µM | TGI (IGROV1 ovarian): > 100 µM | TGI (MCF7 breast): > 100 µM | TGI (MDA-MB-435): > 100 µM | TGI (OVCAR-8 ovarian): > 100 µM | TGI (SK-OV-3 ovarian): > 100 µM | TGI (SW-620 colon): > 100 µM | TGI (T-47D breast): > 100 µM | TGI (U251 CNS): > 100 µM

CC(C)C(/C=C/c1ccc(Cl)c(Cl)c1)=N\NC(=O)N/N=C(/C=C/c1ccc(Cl)c(Cl)c1)C(C)C
TGI (CAKI-1 renal): > 100 µM | TGI (COLO 205 colon): > 100 µM | TGI (IGROV1 ovarian): > 100 µM | TGI (MCF7 breast): > 100 µM | TGI (MDA-MB-435): > 100 µM | TGI (OVCAR-8 ovarian): > 100 µM | TGI (SK-OV-3 ovarian): > 100 µM | TGI (SW-620 colon): > 100 µM | TGI (U251 CNS): > 100 µM

CCOP(=O)(OCC)C(C#N)Cc1ccco1 (configuration not stated)
TGI (CAKI-1 renal): > 10 µM | TGI (COLO 205 colon): > 10 µM | TGI (IGROV1 ovarian): > 10 µM | TGI (MCF7 breast): > 10 µM | TGI (MDA-MB-435): > 10 µM | TGI (OVCAR-8 ovarian): > 10 µM | TGI (SK-OV-3 ovarian): > 10 µM | TGI (SW-620 colon): > 10 µM | TGI (T-47D breast): > 10 µM | TGI (U251 CNS): > 10 µM

O=c1c(=O)c2c(Br)sc(Br)c2c1=O
TGI (CAKI-1 renal): 33.4 µM | TGI (COLO 205 colon): 38.6 µM | TGI (IGROV1 ovarian): 34.7 µM | TGI (MCF7 breast): 42.3 µM | TGI (MDA-MB-435): 37.7 µM | TGI (OVCAR-8 ovarian): 37.4 µM | TGI (SK-OV-3 ovarian): > 100 µM | TGI (SW-620 colon): 31.8 µM | TGI (T-47D breast): 47.8 µM | TGI (U251 CNS): 61 µM

CCOC(=O)/C(C#N)=C/c1ccnc2ccccc12
TGI (CAKI-1 renal): > 100 µM | TGI (COLO 205 colon): > 100 µM | TGI (IGROV1 ovarian): > 100 µM | TGI (MDA-MB-435): > 100 µM | TGI (OVCAR-8 ovarian): 57 µM | TGI (SK-OV-3 ovarian): > 100 µM | TGI (SW-620 colon): > 100 µM | TGI (T-47D breast): > 100 µM | TGI (U251 CNS): > 100 µM

FC(F)(F)c1cccc(-c2nc3ccccc3c3c2[C@@]2(N4CCCC4)CCCC[C@@H]32)c1
TGI (CAKI-1 renal): > 100 µM | TGI (COLO 205 colon): 30.4 µM | TGI (IGROV1 ovarian): 37.4 µM | TGI (MCF7 breast): 62.8 µM | TGI (MDA-MB-435): 59.3 µM | TGI (SK-OV-3 ovarian): > 100 µM | TGI (SW-620 colon): > 100 µM | TGI (T-47D breast): > 100 µM | TGI (U251 CNS): 71.4 µM

Clc1ccc(C(SCc2ccccc2)SCc2ccccc2)cc1
TGI (CAKI-1 renal): > 10 µM | TGI (COLO 205 colon): > 10 µM | TGI (IGROV1 ovarian): > 10 µM | TGI (MCF7 breast): > 10 µM | TGI (OVCAR-8 ovarian): > 10 µM | TGI (SK-OV-3 ovarian): > 10 µM | TGI (SW-620 colon): > 10 µM | TGI (T-47D breast): > 10 µM | TGI (U251 CNS): > 10 µM

O=[N+]([O-])c1cc2c(cc1/C=N/n1c(CO)nc3ccccc31)OCO2
TGI (CAKI-1 renal): > 100 µM | TGI (COLO 205 colon): > 100 µM | TGI (MCF7 breast): > 100 µM | TGI (MDA-MB-435): > 100 µM | TGI (OVCAR-8 ovarian): > 100 µM | TGI (SK-OV-3 ovarian): > 100 µM | TGI (SW-620 colon): > 100 µM | TGI (T-47D breast): > 100 µM | TGI (U251 CNS): > 100 µM

C[N+]1(CCCl)CC[N+](C)(CCCl)CC1 (configuration not stated)
TGI (CAKI-1 renal): > 100 µM | TGI (COLO 205 colon): > 100 µM | TGI (IGROV1 ovarian): > 100 µM | TGI (MCF7 breast): > 100 µM | TGI (MDA-MB-435): > 100 µM | TGI (OVCAR-8 ovarian): > 100 µM | TGI (SK-OV-3 ovarian): > 100 µM | TGI (SW-620 colon): > 100 µM | TGI (T-47D breast): > 100 µM | TGI (U251 CNS): > 100 µM

CCCCCCCCCCCCCCCC(=O)N(CCCCCCCCCCC(=O)O)CC(O)C(O)C(OC1OC(CO)C(O)C(O)C1O)C(O)CO (configuration not stated)
TGI (CAKI-1 renal): > 100 µM | TGI (COLO 205 colon): 32.6 µM | TGI (IGROV1 ovarian): > 100 µM | TGI (MCF7 breast): > 100 µM | TGI (MDA-MB-435): > 100 µM | TGI (OVCAR-8 ovarian): 66 µM | TGI (SK-OV-3 ovarian): > 100 µM | TGI (SW-620 colon): 52.5 µM | TGI (T-47D breast): > 100 µM | TGI (U251 CNS): 32.9 µM

CC[C@H]1C=CCC[C@@]2(C[C@@H]3CC[C@H]4[C@@H](C(=O)OCCCCCCCCCCCCCCCC(=O)N(CCCN)C[C@@H](O)CCN)[C@@]5(CCC[C@@H](C)O5)NC(=[N+]34)N2)O1
TGI (CAKI-1 renal): > 10 µM | TGI (COLO 205 colon): 3.79 µM | TGI (IGROV1 ovarian): 3.13 µM | TGI (MCF7 breast): 3.16 µM | TGI (MDA-MB-435): 2.88 µM | TGI (OVCAR-8 ovarian): 4.93 µM | TGI (SK-OV-3 ovarian): 3.19 µM | TGI (SW-620 colon): 6.99 µM | TGI (U251 CNS): 3.05 µM

Cc1ccc(NC(=O)CSc2nc(=O)[nH]c3nc[nH]c23)cc1
TGI (CAKI-1 renal): > 100 µM | TGI (COLO 205 colon): > 100 µM | TGI (IGROV1 ovarian): > 100 µM | TGI (MCF7 breast): > 100 µM | TGI (MDA-MB-435): > 100 µM | TGI (OVCAR-8 ovarian): > 100 µM | TGI (SK-OV-3 ovarian): > 100 µM | TGI (SW-620 colon): > 100 µM | TGI (T-47D breast): > 100 µM | TGI (U251 CNS): > 100 µM

O=C1c2cc(Cl)ccc2NC(=NCCCl)C2CSCN12 (configuration not stated)
TGI (CAKI-1 renal): > 100 µM | TGI (COLO 205 colon): > 100 µM | TGI (IGROV1 ovarian): > 100 µM | TGI (MCF7 breast): > 100 µM | TGI (MDA-MB-435): > 100 µM | TGI (OVCAR-8 ovarian): > 100 µM | TGI (SK-OV-3 ovarian): > 100 µM | TGI (SW-620 colon): > 100 µM | TGI (T-47D breast): > 100 µM | TGI (U251 CNS): > 100 µM

CCNC(=O)c1c(O)c2ccccc2[nH]c1=O
TGI (CAKI-1 renal): > 100 µM | TGI (COLO 205 colon): > 100 µM | TGI (IGROV1 ovarian): > 100 µM | TGI (MCF7 breast): > 100 µM | TGI (MDA-MB-435): > 100 µM | TGI (OVCAR-8 ovarian): > 100 µM | TGI (SW-620 colon): > 100 µM | TGI (U251 CNS): > 100 µM

CCOC(=O)CNc1nc(=O)c2c(=O)oc(Cl)cc2o1
TGI (CAKI-1 renal): 29.1 µM | TGI (COLO 205 colon): > 100 µM | TGI (IGROV1 ovarian): 21.7 µM | TGI (MDA-MB-435): 35.4 µM | TGI (OVCAR-8 ovarian): 23.2 µM | TGI (SK-OV-3 ovarian): > 100 µM | TGI (SW-620 colon): 85.6 µM | TGI (T-47D breast): 61.7 µM | TGI (U251 CNS): 85.3 µM

Cc1noc(NC2=CC(=O)C(=O)c3ccccc32)c1C
TGI (CAKI-1 renal): > 100 µM | TGI (COLO 205 colon): > 100 µM | TGI (MCF7 breast): 17.9 µM | TGI (MDA-MB-435): 0.397 µM | TGI (OVCAR-8 ovarian): > 100 µM | TGI (SK-OV-3 ovarian): > 100 µM | TGI (T-47D breast): > 100 µM | TGI (U251 CNS): > 100 µM

CC(=O)OC1COC(Nc2nc(NCc3ccccc3)n(C)c(=O)c2N=O)C(OC(C)=O)C1OC(C)=O (configuration not stated)
TGI (CAKI-1 renal): > 10 µM | TGI (COLO 205 colon): > 10 µM | TGI (IGROV1 ovarian): > 10 µM | TGI (MCF7 breast): > 10 µM | TGI (MDA-MB-435): > 10 µM | TGI (OVCAR-8 ovarian): > 10 µM | TGI (SK-OV-3 ovarian): > 10 µM | TGI (SW-620 colon): > 10 µM | TGI (T-47D breast): > 10 µM | TGI (U251 CNS): > 10 µM

C=C1C(=O)O[C@@H]2C=C(C)C3=CC(=O)[C@](C)(C[C@H](OC(=O)/C(C)=C\C)[C@@H]12)O3
TGI (CAKI-1 renal): 1.38 µM | TGI (COLO 205 colon): 2 µM | TGI (IGROV1 ovarian): 3.04 µM | TGI (MCF7 breast): 1.63 µM | TGI (MDA-MB-435): 3.74 µM | TGI (OVCAR-8 ovarian): 2.18 µM | TGI (SK-OV-3 ovarian): 16.8 µM | TGI (SW-620 colon): 1.33 µM | TGI (T-47D breast): 3.81 µM | TGI (U251 CNS): 4.85 µM

N#Cc1c(-c2ccccc2)c(N=Nc2ccc(Cl)cc2)c(=O)n2c1[nH]c1ccccc12
TGI (CAKI-1 renal): > 100 µM | TGI (COLO 205 colon): > 100 µM | TGI (IGROV1 ovarian): > 100 µM | TGI (MCF7 breast): > 100 µM | TGI (MDA-MB-435): > 100 µM | TGI (OVCAR-8 ovarian): > 100 µM | TGI (SK-OV-3 ovarian): > 100 µM | TGI (SW-620 colon): > 100 µM | TGI (T-47D breast): > 100 µM | TGI (U251 CNS): > 100 µM

O=CC12C3CCC1C2C(=O)C3 (configuration not stated)
TGI (CAKI-1 renal): > 100 µM | TGI (COLO 205 colon): > 100 µM | TGI (IGROV1 ovarian): > 100 µM | TGI (MCF7 breast): > 100 µM | TGI (MDA-MB-435): > 100 µM | TGI (OVCAR-8 ovarian): > 100 µM | TGI (SK-OV-3 ovarian): > 100 µM | TGI (SW-620 colon): > 100 µM | TGI (U251 CNS): > 100 µM

CN(C)C(=O)OC(Cn1cncn1)(Cn1cncn1)c1ccc(Cl)cc1Cl
TGI (CAKI-1 renal): > 100 µM | TGI (COLO 205 colon): > 100 µM | TGI (IGROV1 ovarian): > 100 µM | TGI (MCF7 breast): > 100 µM | TGI (MDA-MB-435): > 100 µM | TGI (OVCAR-8 ovarian): > 100 µM | TGI (SK-OV-3 ovarian): > 100 µM | TGI (SW-620 colon): > 100 µM | TGI (T-47D breast): > 100 µM | TGI (U251 CNS): > 100 µM
